In ChEMBL document CHEMBL4052645, “Discovery of potent and efficacious pyrrolopyridazines as dual JAK1/3 inhibitors” (Bioorg Med Chem Lett, 2017):

What was measured:
[1] = molecular target: Activin receptor type-2B (Homo sapiens) (UniProt Q13705); test: Inhibition of wild-type human ACTR2B (H169 to D504 residues) expressed in bacterial expression system assessed as residual activity at 50 nM by Kinomescan method relative to control
[2] = molecular target: Mitogen-activated protein kinase kinase kinase 20 (Homo sapiens) (UniProt Q9NYL2); test: Inhibition of wild-type human partial length ZAK (M1 to L331 residues) expressed in bacterial expression system assessed as residual activity at 50 nM by Kinomescan method relative to control
[3] = molecular target: Receptor tyrosine-protein kinase erbB-4 (Homo sapiens) (UniProt Q15303); test: Inhibition of wild-type human partial length ERBB4 (L690 to K994 residues) expressed in bacterial expression system assessed as residual activity at 50 nM by Kinomescan method relative to control
[4] = molecular target: Serine/threonine-protein kinase TAO3 (Homo sapiens) (UniProt Q9H2K8); test: Inhibition of wild-type human partial length TAO3 (M1 to T316 residues) expressed in mammalian expression system assessed as residual activity at 50 nM by Kinomescan method relative to control
[5] = molecular target: Ephrin type-A receptor 7 (Homo sapiens) (UniProt Q15375); test: Inhibition of wild-type human partial length EPHA7 (Y608 to S912 residues) expressed in bacterial expression system assessed as residual activity at 50 nM by Kinomescan method relative to control
[6] = tested on: Phosphatidylinositol 4,5-bisphosphate 3-kinase catalytic subunit alpha isoform (Homo sapiens), P42336 [E542K]; test: Inhibition of human partial length PI3KCA E542K mutant (R108 to N1068 residues) expressed in mammalian expression system assessed as residual activity at 50 nM by Kinomescan method relative to control
[7] = molecular target: Receptor-interacting serine/threonine-protein kinase 2 (Homo sapiens) (UniProt O43353); test: Inhibition of wild-type human partial length RIPK2 (M1 to K310 residues) expressed in bacterial expression system assessed as residual activity at 50 nM by Kinomescan method relative to control
[8] = molecular target: Cyclin-dependent kinase 14 (Homo sapiens) (UniProt O94921); test: Inhibition of wild-type human full length PFTAIRE1 (M1 to H451 residues) expressed in bacterial expression system assessed as residual activity at 50 nM by Kinomescan method relative to control
[9] = molecular target: Ribosomal protein S6 kinase alpha-5 (Homo sapiens) (UniProt O75582); test: Inhibition of wild-type human partial length N-terminal MSK1 kinase domain 1 expressed in bacterial expression system assessed as residual activity at 50 nM by Kinomescan method relative to control
[10] = molecular target: Eukaryotic translation initiation factor 2-alpha kinase 1 (Homo sapiens) (UniProt Q9BQI3); test: Inhibition of wild-type human partial length EIF2AK1 (Q147 to E603 residues) expressed in mammalian expression system assessed as residual activity at 50 nM by Kinomescan method relative to control
[11] = molecular target: Cyclin-dependent kinase 3 (Homo sapiens) (UniProt Q00526); test: Inhibition of wild-type human full length CDK3 (M1 to H305 residues) expressed in bacterial expression system assessed as residual activity at 50 nM by Kinomescan method relative to control
[12] = molecular target: cGMP-dependent protein kinase 1 (Homo sapiens) (UniProt Q13976); test: Inhibition of wild-type human partial length PKG1 (L339 to F686 residues) expressed in bacterial expression system assessed as residual activity at 50 nM by Kinomescan method relative to control
[13] = molecular target: Serine/threonine-protein kinase PAK 5 (Homo sapiens) (UniProt Q9P286); test: Inhibition of wild-type human partial length PAK5 (Y400 to H719 residues) expressed in bacterial expression system assessed as residual activity at 50 nM by Kinomescan method relative to control
[14] = molecular target: Dual specificity tyrosine-phosphorylation-regulated kinase 1A (Homo sapiens) (UniProt Q13627); test: Inhibition of wild-type human partial length DYRK1A (H129 to S509 residues) expressed in mammalian expression system assessed as residual activity at 50 nM by Kinomescan method relative to control
[15] = molecular target: Mitogen-activated protein kinase kinase kinase kinase 1 (Homo sapiens) (UniProt Q92918); test: Inhibition of wild-type human full length HPK1 (M1 to R799 residues) expressed in bacterial expression system assessed as residual activity at 50 nM by Kinomescan method relative to control
[16] = molecular target: Cyclin-dependent kinase-like 5 (Homo sapiens) (UniProt O76039); test: Inhibition of wild-type human partial length CDKL5 (M1 to S337 residues) expressed in mammalian expression system assessed as residual activity at 50 nM by Kinomescan method relative to control
[17] = molecular target: Serine/threonine-protein kinase pim-3 (Homo sapiens) (UniProt Q86V86); test: Inhibition of wild-type human partial length PIM3 (G16 to A317 residues) expressed in bacterial expression system assessed as residual activity at 50 nM by Kinomescan method relative to control
[18] = molecular target: Protein-tyrosine kinase 6 (Homo sapiens) (UniProt Q13882); test: Inhibition of wild-type human partial length BRK (L166 to T451 residues) expressed in bacterial expression system assessed as residual activity at 50 nM by Kinomescan method relative to control
[19] = molecular target: Serine/threonine-protein kinase Nek3 (Homo sapiens) (UniProt P51956); test: Inhibition of wild-type human full length NEK3 (M1 to R506 residues) expressed in mammalian expression system assessed as residual activity at 50 nM by Kinomescan method relative to control
[20] = molecular target: Serine/threonine-protein kinase tousled-like 1 (Homo sapiens) (UniProt Q9UKI8); test: Inhibition of wild-type human partial length TLK1 (K447 to A754 residues) expressed in bacterial expression system assessed as residual activity at 50 nM by Kinomescan method relative to control
[21] = molecular target: Serine/threonine-protein kinase OSR1 (Homo sapiens) (UniProt O95747); test: Inhibition of wild-type human full length OSR1 (M1 to S527 residues) expressed in mammalian expression system assessed as residual activity at 50 nM by Kinomescan method relative to control
[22] = molecular target: Tyrosine-protein kinase JAK3 (Homo sapiens) (UniProt P52333); test: Inhibition of human JAK3 D2 domain (I781 to S1124 residues) expressed in mammalian expression system assessed as residual activity at 50 nM by KINOMEscan assay relative to control
[23] = molecular target: Tyrosine-protein kinase CSK (Homo sapiens) (UniProt P41240); test: Inhibition of wild-type human full length CSK (M1 to L450 residues) expressed in bacterial expression system assessed as residual activity at 50 nM by Kinomescan method relative to control
[24] = molecular target: Serine/threonine-protein kinase Chk1 (Homo sapiens) (UniProt O14757); test: Inhibition of wild-type human partial length CHK1 (M1 to G289 residues) expressed in bacterial expression system assessed as residual activity at 50 nM by Kinomescan method relative to control
[25] = molecular target: RAF proto-oncogene serine/threonine-protein kinase (Homo sapiens) (UniProt P04049); test: Inhibition of wild-type human partial length RAF1 (I330 to T640 residues) expressed in bacterial expression system assessed as residual activity at 50 nM by Kinomescan method relative to control

Chain of Mitogen-activated protein kinase kinase kinase kinase 1 (Homo sapiens) (Q92918 whole entry, looked up, the tested form may be a part): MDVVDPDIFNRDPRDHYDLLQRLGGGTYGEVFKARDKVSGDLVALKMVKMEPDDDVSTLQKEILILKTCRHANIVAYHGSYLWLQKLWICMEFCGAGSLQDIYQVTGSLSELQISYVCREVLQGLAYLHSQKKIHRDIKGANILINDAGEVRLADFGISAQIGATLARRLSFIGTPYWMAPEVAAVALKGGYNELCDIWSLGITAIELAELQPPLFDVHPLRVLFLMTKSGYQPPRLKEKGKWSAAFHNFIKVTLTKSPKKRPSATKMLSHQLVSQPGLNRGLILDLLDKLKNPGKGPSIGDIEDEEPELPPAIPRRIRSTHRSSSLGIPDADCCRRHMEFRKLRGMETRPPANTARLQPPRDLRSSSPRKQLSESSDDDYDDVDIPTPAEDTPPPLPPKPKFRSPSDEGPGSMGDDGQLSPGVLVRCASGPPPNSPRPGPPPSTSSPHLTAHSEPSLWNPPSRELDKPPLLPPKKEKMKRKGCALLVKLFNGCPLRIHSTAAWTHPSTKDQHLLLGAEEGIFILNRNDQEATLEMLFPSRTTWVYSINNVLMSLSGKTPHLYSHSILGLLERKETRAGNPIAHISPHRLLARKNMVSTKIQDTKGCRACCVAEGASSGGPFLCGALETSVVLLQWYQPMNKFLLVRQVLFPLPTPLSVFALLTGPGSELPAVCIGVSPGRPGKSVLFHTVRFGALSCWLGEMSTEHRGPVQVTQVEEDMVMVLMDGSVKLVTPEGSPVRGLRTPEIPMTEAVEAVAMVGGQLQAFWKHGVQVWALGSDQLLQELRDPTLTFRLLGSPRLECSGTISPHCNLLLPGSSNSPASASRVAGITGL
Chain of Phosphatidylinositol 4,5-bisphosphate 3-kinase catalytic subunit alpha isoform (Homo sapiens), P42336 [E542K] (P42336 whole entry E542K, the tested form may be a part, canonical isoform): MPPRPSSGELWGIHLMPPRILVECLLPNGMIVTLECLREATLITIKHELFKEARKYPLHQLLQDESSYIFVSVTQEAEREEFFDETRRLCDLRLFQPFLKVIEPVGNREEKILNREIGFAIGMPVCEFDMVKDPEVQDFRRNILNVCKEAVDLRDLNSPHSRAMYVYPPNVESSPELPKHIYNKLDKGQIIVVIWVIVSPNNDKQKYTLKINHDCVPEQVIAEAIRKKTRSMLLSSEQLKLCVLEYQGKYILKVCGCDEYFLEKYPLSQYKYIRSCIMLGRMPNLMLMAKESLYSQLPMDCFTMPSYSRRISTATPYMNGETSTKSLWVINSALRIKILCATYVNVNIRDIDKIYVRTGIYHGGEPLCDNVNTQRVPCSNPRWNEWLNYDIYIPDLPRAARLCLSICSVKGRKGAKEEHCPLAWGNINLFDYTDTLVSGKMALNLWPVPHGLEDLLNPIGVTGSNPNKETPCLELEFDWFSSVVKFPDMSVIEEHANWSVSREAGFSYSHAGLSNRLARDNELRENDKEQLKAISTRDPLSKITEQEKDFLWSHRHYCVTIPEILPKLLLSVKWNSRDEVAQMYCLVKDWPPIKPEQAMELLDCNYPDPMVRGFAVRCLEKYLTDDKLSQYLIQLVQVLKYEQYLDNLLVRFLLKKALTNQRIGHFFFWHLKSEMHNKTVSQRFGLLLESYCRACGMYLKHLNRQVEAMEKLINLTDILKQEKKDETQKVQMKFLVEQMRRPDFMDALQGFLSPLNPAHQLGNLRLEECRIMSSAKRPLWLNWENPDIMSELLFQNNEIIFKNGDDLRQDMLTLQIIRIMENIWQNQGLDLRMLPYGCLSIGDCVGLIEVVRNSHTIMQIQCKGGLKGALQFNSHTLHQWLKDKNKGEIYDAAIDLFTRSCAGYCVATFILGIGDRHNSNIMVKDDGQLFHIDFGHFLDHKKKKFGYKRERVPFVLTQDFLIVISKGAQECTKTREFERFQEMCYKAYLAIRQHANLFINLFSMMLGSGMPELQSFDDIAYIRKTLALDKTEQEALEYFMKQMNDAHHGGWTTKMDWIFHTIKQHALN
Chain of Cyclin-dependent kinase 14 (Homo sapiens) (O94921 whole entry, the tested form may be a part): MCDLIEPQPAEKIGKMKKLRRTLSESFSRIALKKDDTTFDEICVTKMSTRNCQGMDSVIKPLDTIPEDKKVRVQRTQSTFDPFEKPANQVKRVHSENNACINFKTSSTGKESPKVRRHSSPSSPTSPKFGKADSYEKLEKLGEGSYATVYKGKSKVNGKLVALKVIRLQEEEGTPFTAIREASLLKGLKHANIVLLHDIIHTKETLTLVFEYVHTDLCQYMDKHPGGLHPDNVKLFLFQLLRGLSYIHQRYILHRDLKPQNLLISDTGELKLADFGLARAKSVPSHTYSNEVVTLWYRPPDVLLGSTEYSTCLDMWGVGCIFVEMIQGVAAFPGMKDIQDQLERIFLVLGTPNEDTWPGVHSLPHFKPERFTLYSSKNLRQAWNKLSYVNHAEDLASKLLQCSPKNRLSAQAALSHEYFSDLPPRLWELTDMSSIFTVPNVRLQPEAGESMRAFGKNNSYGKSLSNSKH
Chain of Ribosomal protein S6 kinase alpha-5 (Homo sapiens) (O75582 whole entry, looked up, the tested form may be a part): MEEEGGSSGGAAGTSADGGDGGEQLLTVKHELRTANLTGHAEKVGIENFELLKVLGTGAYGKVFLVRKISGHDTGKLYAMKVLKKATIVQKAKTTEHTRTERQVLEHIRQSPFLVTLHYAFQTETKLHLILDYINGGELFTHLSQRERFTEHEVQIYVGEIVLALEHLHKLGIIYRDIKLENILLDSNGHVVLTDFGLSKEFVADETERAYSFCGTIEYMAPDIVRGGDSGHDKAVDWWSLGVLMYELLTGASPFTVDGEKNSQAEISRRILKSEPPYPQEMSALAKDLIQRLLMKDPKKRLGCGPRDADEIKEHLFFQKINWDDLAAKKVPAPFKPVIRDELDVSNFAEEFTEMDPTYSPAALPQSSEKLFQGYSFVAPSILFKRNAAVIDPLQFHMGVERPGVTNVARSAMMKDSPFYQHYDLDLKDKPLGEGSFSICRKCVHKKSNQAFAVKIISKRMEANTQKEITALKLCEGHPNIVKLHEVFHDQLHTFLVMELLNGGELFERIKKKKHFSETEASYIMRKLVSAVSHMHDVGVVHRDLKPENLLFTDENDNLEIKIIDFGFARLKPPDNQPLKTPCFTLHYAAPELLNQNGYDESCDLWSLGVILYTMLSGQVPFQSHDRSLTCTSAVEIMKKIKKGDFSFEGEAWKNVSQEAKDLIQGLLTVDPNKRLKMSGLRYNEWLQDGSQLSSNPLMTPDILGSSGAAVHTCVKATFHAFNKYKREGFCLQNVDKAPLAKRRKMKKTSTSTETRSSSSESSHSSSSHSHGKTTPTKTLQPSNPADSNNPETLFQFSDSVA
Chain of Activin receptor type-2B (Homo sapiens) (Q13705 whole entry, the tested form may be a part): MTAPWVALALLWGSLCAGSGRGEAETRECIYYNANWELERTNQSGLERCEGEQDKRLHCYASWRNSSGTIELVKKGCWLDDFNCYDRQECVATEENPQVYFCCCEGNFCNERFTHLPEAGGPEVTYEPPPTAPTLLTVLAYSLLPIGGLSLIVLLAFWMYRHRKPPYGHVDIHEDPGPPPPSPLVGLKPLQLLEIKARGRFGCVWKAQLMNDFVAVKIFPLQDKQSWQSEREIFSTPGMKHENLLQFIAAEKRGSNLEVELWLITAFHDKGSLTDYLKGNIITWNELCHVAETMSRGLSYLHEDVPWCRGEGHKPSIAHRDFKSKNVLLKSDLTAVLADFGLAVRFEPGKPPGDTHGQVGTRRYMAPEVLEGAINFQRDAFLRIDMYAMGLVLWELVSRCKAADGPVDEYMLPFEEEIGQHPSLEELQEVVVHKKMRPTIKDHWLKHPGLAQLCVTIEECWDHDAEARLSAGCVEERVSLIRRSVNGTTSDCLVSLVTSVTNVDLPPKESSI
Chain of Cyclin-dependent kinase 3 (Homo sapiens) (Q00526 whole entry, looked up, the tested form may be a part): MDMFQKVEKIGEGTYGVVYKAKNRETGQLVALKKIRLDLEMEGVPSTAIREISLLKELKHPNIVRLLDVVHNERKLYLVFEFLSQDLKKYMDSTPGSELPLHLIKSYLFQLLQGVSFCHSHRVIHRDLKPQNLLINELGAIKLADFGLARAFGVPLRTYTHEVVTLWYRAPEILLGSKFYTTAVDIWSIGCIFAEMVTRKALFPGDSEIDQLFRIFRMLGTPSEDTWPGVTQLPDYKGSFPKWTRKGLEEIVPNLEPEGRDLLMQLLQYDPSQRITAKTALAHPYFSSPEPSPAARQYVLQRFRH
Chain of Serine/threonine-protein kinase PAK 5 (Homo sapiens) (Q9P286 whole entry, looked up, the tested form may be a part): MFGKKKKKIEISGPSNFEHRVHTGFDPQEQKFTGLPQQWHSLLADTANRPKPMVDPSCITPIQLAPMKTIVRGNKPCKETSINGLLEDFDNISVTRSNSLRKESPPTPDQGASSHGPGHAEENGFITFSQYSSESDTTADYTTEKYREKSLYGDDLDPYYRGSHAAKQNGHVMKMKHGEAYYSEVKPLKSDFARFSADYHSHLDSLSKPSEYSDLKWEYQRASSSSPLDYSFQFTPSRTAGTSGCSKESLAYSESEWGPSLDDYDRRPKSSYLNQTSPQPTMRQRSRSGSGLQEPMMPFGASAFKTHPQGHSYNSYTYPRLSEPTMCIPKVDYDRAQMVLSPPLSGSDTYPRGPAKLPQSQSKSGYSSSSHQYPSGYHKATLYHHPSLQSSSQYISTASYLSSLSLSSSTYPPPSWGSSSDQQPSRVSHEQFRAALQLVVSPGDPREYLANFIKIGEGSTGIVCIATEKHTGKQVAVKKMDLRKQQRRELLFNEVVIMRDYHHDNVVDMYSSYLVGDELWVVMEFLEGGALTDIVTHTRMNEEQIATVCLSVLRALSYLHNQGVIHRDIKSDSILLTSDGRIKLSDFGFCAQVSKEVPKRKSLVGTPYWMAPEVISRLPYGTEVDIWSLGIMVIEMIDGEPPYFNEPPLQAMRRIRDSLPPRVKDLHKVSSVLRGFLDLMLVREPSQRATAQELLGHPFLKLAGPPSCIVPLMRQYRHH

| SMILES | Activity [1] [%] | Activity [2] [%] | Activity [3] [%] | Activity [4] [%] | Activity [5] [%] | Activity [6] [%] | Activity [7] [%] | Activity [8] [%] | Activity [9] [%] | Activity [10] [%] | Activity [11] [%] | Activity [12] [%] | Activity [13] [%] | Activity [14] [%] | Activity [15] [%] | Activity [16] [%] | Activity [17] [%] | Activity [18] [%] | Activity [19] [%] | Activity [20] [%] | also measured |
| --- | --- | --- | --- | --- | --- | --- | --- | --- | --- | --- | --- | --- | --- | --- | --- | --- | --- | --- | --- | --- | --- |
| CC1(C)[C@H](Nc2c(C(N)=O)cnn3cc(-c4ccccc4)cc23)CC[C@]1(C)N | 67 | 96 | 87 | 82 | 100 | 100 | 93 | 83 | 100 | 94 | 98 | 100 | 50 | 73 | 66 | 83 | 92 | 100 | 89 | 61 | Activity [21]: 100%; Activity [22]: 3.8%; Activity [23]: 100%; Activity [24]: 98%; Activity [25]: 100% |
| COc1ccc(-c2cc3c(N[C@@H]4CC[C@](C)(N)C4(C)C)c(C(N)=O)cnn3c2)cn1 | 100 | 91 | 100 | 78 | 100 | 100 | 100 | 100 | 100 | 96 | 94 | 100 | 68 | 100 | 70 | 90 | 72 | 96 | 100 | 80 | Activity [21]: 100%; Activity [22]: 40%; Activity [23]: 100%; Activity [24]: 85%; Activity [25]: 100% |
